Measurements from PubChem BioAssay (NCI).
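Where inhibition never reached the appropriate level, the endpoint shown equals the highest concentration tested. Otherwise, values were interpolated linearly from a five-concentration, 48-hour dose response in 96-well plates. TGI is the concentration that stops growth completely.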

How the values were obtained:
Assay in all cases: NCI anticancer screen, dose series, 48 h
CAKI-1 renal = test system: CAKI-1 renal
K-562 leukemia = test system: K-562 leukemia
M14 melanoma = test system: M14 melanoma
SF-268 CNS = test system: SF-268 CNS
SF-539 CNS = test system: SF-539 CNS
SNB-19 CNS = test system: SNB-19 CNS
TK-10 renal = test system: TK-10 renal
UACC-257 melanoma = test system: UACC-257 melanoma
MCF7 breast = test system: MCF7 breast
MDA-MB-231 breast = test system: MDA-MB-231 breast
MDA-MB-435 = test system: MDA-MB-435
NCI/ADR-RES ovarian = test system: NCI/ADR-RES ovarian

Question: For Cc1ccc([N+](=O)[O-])cc1NC(=O)C(=O)C(C(=O)c1ccccc1F)C1OC(=O)c2ccccc21 (centres undefined), which TGI (CAKI-1 renal) is on record?
Answer: > 100 µM

Question: And the TGI (K-562 leukemia)?
Answer: > 100 µM

Question: And the TGI (M14 melanoma)?
Answer: > 100 µM

Question: What about the TGI (SF-268 CNS) of the same compound?
Answer: 98.8 µM

Question: And the TGI (SF-539 CNS)?
Answer: 67.3 µM

Question: What about the TGI (SNB-19 CNS) of the same compound?
Answer: 75.5 µM

Question: What about the TGI (TK-10 renal) of the same compound?
Answer: > 100 µM

Question: And the TGI (UACC-257 melanoma)?
Answer: > 100 µM

Question: With Cc1ccc(S(=O)(=O)N/N=c2\c(C)c(C3=NS(=O)(=O)c4cc(S(N)(=O)=O)c(Cl)cc4N3)oc3c(Cl)cc(Cl)cc23)cc1 as the compound, how does the TGI (CAKI-1 renal) read?
Answer: > 100 µM

Question: What about the TGI (K-562 leukemia) of the same compound?
Answer: > 100 µM

Question: What about the TGI (M14 melanoma) of the same compound?
Answer: > 100 µM

Question: What about the TGI (SF-268 CNS) of the same compound?
Answer: > 100 µM

Question: What about the TGI (SF-539 CNS) of the same compound?
Answer: > 100 µM

Question: And the TGI (SNB-19 CNS)?
Answer: > 100 µM

Question: What about the TGI (TK-10 renal) of the same compound?
Answer: > 100 µM

Question: And the TGI (UACC-257 melanoma)?
Answer: > 100 µM

Question: For Cc1ccc(C[P+]2(c3ccccc3)CCCCC2)cc1, which TGI (K-562 leukemia) is on record?
Answer: > 100 µM

Question: What about the TGI (M14 melanoma) of the same compound?
Answer: > 100 µM

Question: What about the TGI (SF-539 CNS) of the same compound?
Answer: > 100 µM

Question: And the TGI (SNB-19 CNS)?
Answer: > 100 µM

Question: What about the TGI (TK-10 renal) of the same compound?
Answer: > 100 µM

Question: And the TGI (UACC-257 melanoma)?
Answer: 32.6 µM

Question: C=C1CC[C@@H](Br)C(C)(C)[C@]12CCC(C)(O)C(Cl)C2 (some centres undefined) was tested. Which TGI (CAKI-1 renal) did it give?
Answer: 32 µM

Question: What about the TGI (K-562 leukemia) of the same compound?
Answer: 49.4 µM

Question: What about the TGI (SF-268 CNS) of the same compound?
Answer: 32.6 µM

Question: And the TGI (SNB-19 CNS)?
Answer: 43.4 µM

Question: And the TGI (TK-10 renal)?
Answer: 78.4 µM

Question: And the TGI (UACC-257 melanoma)?
Answer: 32.4 µM

Question: How did the TGI (CAKI-1 renal) turn out when N=c1nc2n(cc1F)[C@@H]1O[C@H](CO)[C@@H](O)[C@@H]1O2 was run?
Answer: > 100 µM

Question: And the TGI (K-562 leukemia)?
Answer: > 100 µM

Question: And the TGI (M14 melanoma)?
Answer: 7.81 µM

Question: And the TGI (MCF7 breast)?
Answer: > 100 µM

Question: What about the TGI (MDA-MB-231 breast) of the same compound?
Answer: > 100 µM

Question: What about the TGI (MDA-MB-435) of the same compound?
Answer: > 100 µM

Question: What about the TGI (NCI/ADR-RES ovarian) of the same compound?
Answer: > 100 µM

Question: What about the TGI (SF-268 CNS) of the same compound?
Answer: > 100 µM

Question: What about the TGI (SF-539 CNS) of the same compound?
Answer: > 77.2 µM

Question: And the TGI (SNB-19 CNS)?
Answer: > 100 µM

Question: What about the TGI (TK-10 renal) of the same compound?
Answer: > 100 µM

Question: What about the TGI (UACC-257 melanoma) of the same compound?
Answer: > 100 µM

Question: How did the TGI (CAKI-1 renal) turn out when CC(=O)O[C@H]1CC[C@@]2(C)C(=CC[C@@H]3[C@@H]2CC[C@]2(C)Nc4c(cnn4S(C)(=O)=O)C[C@@H]32)C1 was run?
Answer: > 100 µM

Question: And the TGI (K-562 leukemia)?
Answer: > 100 µM

Question: What about the TGI (M14 melanoma) of the same compound?
Answer: 75.2 µM

Question: What about the TGI (MCF7 breast) of the same compound?
Answer: > 100 µM

Question: And the TGI (MDA-MB-231 breast)?
Answer: > 100 µM

Question: What about the TGI (MDA-MB-435) of the same compound?
Answer: > 100 µM

Question: And the TGI (NCI/ADR-RES ovarian)?
Answer: > 100 µM

Question: And the TGI (SNB-19 CNS)?
Answer: > 100 µM

Question: Which TGI (CAKI-1 renal) does the source give for O=C1Nc2ccccc2S/C1=C\c1cccc(C(F)(F)F)c1 here?
Answer: 37.4 µM

Question: And the TGI (K-562 leukemia)?
Answer: > 100 µM

Question: And the TGI (M14 melanoma)?
Answer: > 100 µM

Question: And the TGI (MCF7 breast)?
Answer: > 100 µM

Question: And the TGI (MDA-MB-231 breast)?
Answer: > 100 µM

Question: What about the TGI (MDA-MB-435) of the same compound?
Answer: > 100 µM

Question: And the TGI (NCI/ADR-RES ovarian)?
Answer: > 100 µM

Question: What about the TGI (SF-268 CNS) of the same compound?
Answer: > 100 µM

Question: And the TGI (SF-539 CNS)?
Answer: > 100 µM

Question: And the TGI (SNB-19 CNS)?
Answer: > 100 µM

Question: And the TGI (TK-10 renal)?
Answer: > 100 µM

Question: What about the TGI (UACC-257 melanoma) of the same compound?
Answer: > 100 µM

Question: Which TGI (CAKI-1 renal) does the source give for O=C(N/C(=C\c1cccc([N+](=O)[O-])c1)c1nc2[nH]c(=S)[nH]c(=O)c2[nH]1)c1ccccc1 here?
Answer: > 100 µM

Question: And the TGI (K-562 leukemia)?
Answer: > 100 µM

Question: What about the TGI (M14 melanoma) of the same compound?
Answer: > 100 µM

Question: What about the TGI (SF-268 CNS) of the same compound?
Answer: > 100 µM

Question: And the TGI (SF-539 CNS)?
Answer: > 100 µM

Question: And the TGI (SNB-19 CNS)?
Answer: > 100 µM

Question: And the TGI (UACC-257 melanoma)?
Answer: > 100 µM

Question: What does the source list for NC(=S)Nc1cc(Cl)ccc1Cl?
Answer: TGI (CAKI-1 renal): > 100 µM; TGI (K-562 leukemia): > 100 µM; TGI (M14 melanoma): > 100 µM; TGI (SF-268 CNS): > 100 µM; TGI (SF-539 CNS): > 100 µM; TGI (SNB-19 CNS): > 100 µM; TGI (TK-10 renal): > 100 µM; TGI (UACC-257 melanoma): > 100 µM

Question: For O=C(O)CCSCc1ccc(I)cc1, which TGI (CAKI-1 renal) is on record?
Answer: > 100 µM

Question: What about the TGI (K-562 leukemia) of the same compound?
Answer: > 100 µM

Question: What about the TGI (M14 melanoma) of the same compound?
Answer: > 100 µM

Question: What about the TGI (MCF7 breast) of the same compound?
Answer: > 100 µM

Question: What about the TGI (MDA-MB-231 breast) of the same compound?
Answer: > 100 µM

Question: What about the TGI (MDA-MB-435) of the same compound?
Answer: > 100 µM

Question: What about the TGI (NCI/ADR-RES ovarian) of the same compound?
Answer: > 100 µM

Question: What about the TGI (SF-268 CNS) of the same compound?
Answer: > 100 µM

Question: What about the TGI (SNB-19 CNS) of the same compound?
Answer: > 100 µM

Question: And the TGI (TK-10 renal)?
Answer: > 100 µM

Question: What about the TGI (UACC-257 melanoma) of the same compound?
Answer: > 100 µM

Question: For O=C1Nc2ccccc2S/C1=C\c1ccccc1C(F)(F)F, which TGI (CAKI-1 renal) is on record?
Answer: > 100 µM

Question: What about the TGI (M14 melanoma) of the same compound?
Answer: > 100 µM

Question: What about the TGI (MCF7 breast) of the same compound?
Answer: > 100 µM

Question: What about the TGI (MDA-MB-231 breast) of the same compound?
Answer: > 100 µM

Question: What about the TGI (MDA-MB-435) of the same compound?
Answer: > 100 µM

Question: And the TGI (NCI/ADR-RES ovarian)?
Answer: > 100 µM

Question: And the TGI (SF-268 CNS)?
Answer: > 100 µM

Question: What about the TGI (SF-539 CNS) of the same compound?
Answer: > 100 µM

Question: And the TGI (SNB-19 CNS)?
Answer: > 100 µM

Question: What about the TGI (TK-10 renal) of the same compound?
Answer: > 100 µM

Question: And the TGI (UACC-257 melanoma)?
Answer: > 100 µM

Question: CCC1CN2CCC1CC2 (centres undefined) was tested. Which TGI (K-562 leukemia) did it give?
Answer: > 100 µM

Question: And the TGI (MCF7 breast)?
Answer: > 100 µM

Question: What about the TGI (NCI/ADR-RES ovarian) of the same compound?
Answer: > 100 µM

Question: What about the TGI (SF-268 CNS) of the same compound?
Answer: > 100 µM

Question: And the TGI (SF-539 CNS)?
Answer: > 100 µM

Question: And the TGI (SNB-19 CNS)?
Answer: > 100 µM

Question: And the TGI (UACC-257 melanoma)?
Answer: > 100 µM
